Literature values in patent publication US8476227B2, “Methods of activating a melanocortin-4 receptor pathway in obese subjects” (Ethicon Endo-Surgery, Inc., priority 2010, dated 2013).

Details: rat models; background statement, no dose or regimen given

What does the source list for NDP-MSH?
body weight gain: attenuate; food intake: attenuate
